Measured values: article doi:10.1101/2021.09.30.462449v1 (biorxiv, 2021)

Key:
Test in all cases: biochemical
Details in all cases: read-out: % inhibition mean (Lanthascreen)
PRKACB (PRKAC beta) = PRKACB (PRKAC beta) (Homo sapiens, UniProt P22694)
WNK2 = WNK2 (Homo sapiens, UniProt Q9Y3S1)
IRAK3 = IRAK3 (Homo sapiens, UniProt Q9Y616)
ZAK = ZAK (Homo sapiens, UniProt Q9NYL2)
RIPK3 = RIPK3 (Homo sapiens, UniProt Q9Y572)
DDR2 = DDR2 (Homo sapiens, UniProt Q16832)
MAP4K1 (HPK1) = MAP4K1 (HPK1) (Homo sapiens, UniProt Q92918)
TAOK3 (JIK) = TAOK3 (JIK) (Homo sapiens, UniProt Q9H2K8)
STK17B (DRAK2) = STK17B (DRAK2) (Homo sapiens, UniProt O94768)
STK38L (NDR2) = STK38L (NDR2) (Homo sapiens, UniProt Q9Y2H1)
VRK2 = VRK2 (Homo sapiens, UniProt Q86Y07)
TEC = TEC (Homo sapiens, UniProt P42680)
KIT V654A = KIT V654A (Homo sapiens, UniProt P10721, V654A)
TGFBR1 (ALK5) = TGFBR1 (ALK5) (Homo sapiens, UniProt P36897)
TESK1 = TESK1 (Homo sapiens, UniProt Q15569)
LIMK1 = LIMK1 (Homo sapiens, UniProt P53667)
ANKK1 = ANKK1 (Homo sapiens, UniProt Q8NFD2)
HUNK = HUNK (Homo sapiens, UniProt P57058)
ALK F1174L = ALK F1174L (Homo sapiens, UniProt Q9UM73, F1174L)
KIT D816H = KIT D816H (Homo sapiens, UniProt P10721, D816H)
ALK C1156Y = ALK C1156Y (Homo sapiens, UniProt Q9UM73, C1156Y)
PKN2 (PRK2) = PKN2 (PRK2) (Homo sapiens, UniProt Q16513)
KIT D816V = KIT D816V (Homo sapiens, UniProt P10721, D816V)
MASTL = MASTL (Homo sapiens, UniProt Q96GX5)
MAP3K3 (MEKK3) = MAP3K3 (MEKK3) (Homo sapiens, UniProt Q99759)
CLK4 = CLK4 (Homo sapiens, UniProt Q9HAZ1)
ACVRL1 (ALK1) = ACVRL1 (ALK1) (Homo sapiens, UniProt P37023)
MAP3K11 (MLK3) = MAP3K11 (MLK3) (Homo sapiens, UniProt Q16584)
ACVR1 (ALK2) = ACVR1 (ALK2) (Homo sapiens, UniProt Q04771)
Sequence of ACVR1 (ALK2) (Q04771 whole entry): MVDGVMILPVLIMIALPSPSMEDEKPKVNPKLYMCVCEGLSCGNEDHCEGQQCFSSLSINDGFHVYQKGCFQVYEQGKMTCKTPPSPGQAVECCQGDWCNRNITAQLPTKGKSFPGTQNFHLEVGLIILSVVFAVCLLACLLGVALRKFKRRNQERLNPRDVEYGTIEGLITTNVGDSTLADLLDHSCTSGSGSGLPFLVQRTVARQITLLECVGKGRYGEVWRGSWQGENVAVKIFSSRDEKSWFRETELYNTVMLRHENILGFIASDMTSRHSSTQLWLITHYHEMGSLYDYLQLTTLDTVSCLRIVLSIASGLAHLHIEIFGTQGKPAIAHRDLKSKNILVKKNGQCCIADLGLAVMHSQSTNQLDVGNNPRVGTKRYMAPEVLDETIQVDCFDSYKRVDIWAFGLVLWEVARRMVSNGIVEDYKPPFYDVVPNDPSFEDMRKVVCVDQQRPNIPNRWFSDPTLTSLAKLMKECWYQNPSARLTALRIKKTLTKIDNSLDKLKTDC

Sequence of KIT D816H (P10721 whole entry D816H): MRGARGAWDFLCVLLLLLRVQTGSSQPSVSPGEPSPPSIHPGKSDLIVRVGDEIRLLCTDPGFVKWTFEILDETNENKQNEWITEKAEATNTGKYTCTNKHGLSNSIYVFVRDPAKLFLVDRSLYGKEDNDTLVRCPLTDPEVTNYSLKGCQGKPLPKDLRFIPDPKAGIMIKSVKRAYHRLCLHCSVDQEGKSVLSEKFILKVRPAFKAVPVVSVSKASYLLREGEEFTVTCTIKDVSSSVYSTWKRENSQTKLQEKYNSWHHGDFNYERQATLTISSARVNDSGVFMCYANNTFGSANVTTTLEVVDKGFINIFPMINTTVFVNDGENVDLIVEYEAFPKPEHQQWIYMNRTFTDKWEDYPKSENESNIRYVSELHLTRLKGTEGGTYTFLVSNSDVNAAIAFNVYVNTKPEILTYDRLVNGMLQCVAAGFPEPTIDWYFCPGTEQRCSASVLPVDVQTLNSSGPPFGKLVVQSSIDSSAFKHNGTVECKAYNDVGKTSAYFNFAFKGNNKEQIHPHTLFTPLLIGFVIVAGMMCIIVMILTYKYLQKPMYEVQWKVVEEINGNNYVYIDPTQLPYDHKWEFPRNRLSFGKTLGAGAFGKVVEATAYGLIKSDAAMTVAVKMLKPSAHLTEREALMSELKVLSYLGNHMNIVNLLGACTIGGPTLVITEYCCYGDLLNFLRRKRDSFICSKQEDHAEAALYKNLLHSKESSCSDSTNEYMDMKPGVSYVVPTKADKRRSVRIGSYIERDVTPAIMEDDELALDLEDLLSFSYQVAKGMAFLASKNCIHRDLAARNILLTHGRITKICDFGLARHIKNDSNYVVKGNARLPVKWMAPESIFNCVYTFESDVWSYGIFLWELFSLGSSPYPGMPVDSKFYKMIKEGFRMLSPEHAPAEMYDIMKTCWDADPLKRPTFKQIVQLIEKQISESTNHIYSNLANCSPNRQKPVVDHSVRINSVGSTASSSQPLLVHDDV
Sequence of KIT D816V (P10721 whole entry D816V): as the sequence (P10721 whole entry D816H) above, with H816V counted along it
Sequence of MASTL (Q96GX5 whole entry): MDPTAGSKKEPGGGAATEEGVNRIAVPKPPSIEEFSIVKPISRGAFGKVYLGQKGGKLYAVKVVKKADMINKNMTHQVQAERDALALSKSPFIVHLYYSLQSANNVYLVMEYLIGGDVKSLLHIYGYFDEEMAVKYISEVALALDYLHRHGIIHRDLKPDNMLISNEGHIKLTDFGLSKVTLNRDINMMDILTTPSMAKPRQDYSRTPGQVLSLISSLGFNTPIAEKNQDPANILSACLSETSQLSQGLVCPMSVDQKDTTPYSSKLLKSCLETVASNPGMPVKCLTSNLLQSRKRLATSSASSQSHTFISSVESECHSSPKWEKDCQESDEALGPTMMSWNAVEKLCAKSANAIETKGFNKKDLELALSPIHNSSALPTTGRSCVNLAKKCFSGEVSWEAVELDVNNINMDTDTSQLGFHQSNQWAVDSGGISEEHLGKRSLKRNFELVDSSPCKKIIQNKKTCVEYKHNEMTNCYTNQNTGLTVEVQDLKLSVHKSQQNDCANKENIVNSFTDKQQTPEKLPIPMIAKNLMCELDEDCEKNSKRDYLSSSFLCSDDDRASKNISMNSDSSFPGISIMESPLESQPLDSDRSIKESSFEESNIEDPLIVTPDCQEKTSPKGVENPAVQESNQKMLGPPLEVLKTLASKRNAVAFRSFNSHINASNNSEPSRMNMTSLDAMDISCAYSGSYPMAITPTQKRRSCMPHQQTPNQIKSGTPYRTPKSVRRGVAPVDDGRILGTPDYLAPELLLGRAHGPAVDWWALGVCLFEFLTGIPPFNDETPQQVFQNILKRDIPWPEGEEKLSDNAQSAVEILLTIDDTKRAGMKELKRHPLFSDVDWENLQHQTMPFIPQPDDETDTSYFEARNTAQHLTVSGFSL
Sequence of STK17B (DRAK2) (O94768 whole entry): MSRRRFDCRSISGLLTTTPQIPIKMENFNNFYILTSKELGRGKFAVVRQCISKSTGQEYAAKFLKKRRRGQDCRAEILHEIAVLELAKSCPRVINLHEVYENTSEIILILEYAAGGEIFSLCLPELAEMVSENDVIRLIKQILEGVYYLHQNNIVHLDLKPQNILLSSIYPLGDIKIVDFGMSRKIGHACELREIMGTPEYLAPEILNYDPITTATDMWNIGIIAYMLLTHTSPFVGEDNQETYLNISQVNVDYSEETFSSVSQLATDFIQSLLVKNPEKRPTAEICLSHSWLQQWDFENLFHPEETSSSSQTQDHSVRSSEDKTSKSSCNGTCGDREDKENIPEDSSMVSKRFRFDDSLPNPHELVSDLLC
Sequence of TESK1 (Q15569 whole entry): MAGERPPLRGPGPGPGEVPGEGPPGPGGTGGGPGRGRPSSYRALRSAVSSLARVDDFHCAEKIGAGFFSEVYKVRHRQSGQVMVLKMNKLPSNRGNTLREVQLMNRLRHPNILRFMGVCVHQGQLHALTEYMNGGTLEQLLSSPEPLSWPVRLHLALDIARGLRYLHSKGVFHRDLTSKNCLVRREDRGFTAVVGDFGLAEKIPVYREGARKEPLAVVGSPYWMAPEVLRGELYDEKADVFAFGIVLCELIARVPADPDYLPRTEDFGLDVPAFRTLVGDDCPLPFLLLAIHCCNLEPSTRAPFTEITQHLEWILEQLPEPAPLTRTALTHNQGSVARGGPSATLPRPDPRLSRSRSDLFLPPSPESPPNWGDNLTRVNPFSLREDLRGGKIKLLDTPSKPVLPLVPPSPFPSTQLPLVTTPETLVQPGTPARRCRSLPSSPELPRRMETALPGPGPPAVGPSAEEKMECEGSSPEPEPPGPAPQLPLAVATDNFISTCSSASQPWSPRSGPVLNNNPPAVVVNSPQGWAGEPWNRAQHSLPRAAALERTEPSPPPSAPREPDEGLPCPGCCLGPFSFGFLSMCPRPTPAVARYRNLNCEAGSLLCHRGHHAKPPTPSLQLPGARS
Sequence of TGFBR1 (ALK5) (P36897 whole entry): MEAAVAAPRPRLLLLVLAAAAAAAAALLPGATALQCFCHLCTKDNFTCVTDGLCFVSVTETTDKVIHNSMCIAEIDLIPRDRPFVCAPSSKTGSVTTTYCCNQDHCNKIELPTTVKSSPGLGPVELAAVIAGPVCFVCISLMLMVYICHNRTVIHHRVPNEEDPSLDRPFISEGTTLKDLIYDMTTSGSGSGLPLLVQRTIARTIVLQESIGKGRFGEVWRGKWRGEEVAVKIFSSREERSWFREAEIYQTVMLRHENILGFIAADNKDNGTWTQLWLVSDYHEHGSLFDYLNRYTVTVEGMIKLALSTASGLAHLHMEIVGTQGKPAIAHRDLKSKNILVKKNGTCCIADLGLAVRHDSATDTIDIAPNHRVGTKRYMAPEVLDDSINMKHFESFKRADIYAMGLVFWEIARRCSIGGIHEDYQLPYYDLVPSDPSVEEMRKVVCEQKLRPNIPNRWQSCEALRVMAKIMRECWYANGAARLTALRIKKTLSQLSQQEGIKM
Sequence of LIMK1 (P53667 whole entry): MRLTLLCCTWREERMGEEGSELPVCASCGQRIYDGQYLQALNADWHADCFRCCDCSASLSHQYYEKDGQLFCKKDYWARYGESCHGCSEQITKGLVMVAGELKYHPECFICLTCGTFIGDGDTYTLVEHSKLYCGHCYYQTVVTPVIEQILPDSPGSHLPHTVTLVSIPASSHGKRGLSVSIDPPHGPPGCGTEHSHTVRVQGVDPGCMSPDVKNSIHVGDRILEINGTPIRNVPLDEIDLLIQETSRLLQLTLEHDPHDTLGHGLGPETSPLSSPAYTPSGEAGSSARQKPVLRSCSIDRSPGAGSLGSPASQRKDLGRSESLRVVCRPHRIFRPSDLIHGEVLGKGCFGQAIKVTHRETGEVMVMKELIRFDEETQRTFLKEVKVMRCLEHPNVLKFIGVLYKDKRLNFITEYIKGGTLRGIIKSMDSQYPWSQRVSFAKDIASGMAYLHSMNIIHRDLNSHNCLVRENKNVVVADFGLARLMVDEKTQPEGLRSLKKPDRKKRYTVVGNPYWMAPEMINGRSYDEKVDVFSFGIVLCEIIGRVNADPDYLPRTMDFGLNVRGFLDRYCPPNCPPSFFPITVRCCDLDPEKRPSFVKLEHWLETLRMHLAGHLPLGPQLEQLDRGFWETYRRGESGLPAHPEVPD
Sequence of STK38L (NDR2) (Q9Y2H1 whole entry): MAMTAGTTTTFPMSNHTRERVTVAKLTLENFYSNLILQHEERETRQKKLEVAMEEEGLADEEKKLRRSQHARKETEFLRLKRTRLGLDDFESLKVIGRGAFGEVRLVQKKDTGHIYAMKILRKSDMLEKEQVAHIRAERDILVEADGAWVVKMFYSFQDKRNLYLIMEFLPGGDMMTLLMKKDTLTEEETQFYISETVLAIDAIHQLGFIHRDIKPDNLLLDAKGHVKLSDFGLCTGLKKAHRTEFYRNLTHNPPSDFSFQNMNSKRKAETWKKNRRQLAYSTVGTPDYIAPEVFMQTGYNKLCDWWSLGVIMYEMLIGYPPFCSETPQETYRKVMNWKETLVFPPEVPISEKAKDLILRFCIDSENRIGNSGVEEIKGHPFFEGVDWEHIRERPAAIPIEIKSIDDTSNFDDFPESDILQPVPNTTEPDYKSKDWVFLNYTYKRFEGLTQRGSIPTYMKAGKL

COc1ccc2nc3cc(Cl)ccc3c(Nc3cc(CN4CCCC4)c(O)c(CN4CCCC4)c3)c2n1 [Pyronaridine, 4-[(7-Chloro-2-methoxybenzo[b][1,5]naphthyridin-10-yl)amino]-2,6-bis(1-pyrrolidinylmethyl)phenol phosphate (1:4)]
inhibition at 1 µM (PRKACB (PRKAC beta)): 12% | inhibition at 1 µM (WNK2): 4% | inhibition at 1 µM (IRAK3): -5% | inhibition at 1 µM (ZAK): 0% | inhibition at 1 µM (RIPK3): -7% | inhibition at 1 µM (DDR2): 0% | inhibition at 1 µM (MAP4K1 (HPK1)): 1% | inhibition at 1 µM (TAOK3 (JIK)): -2% | inhibition at 1 µM (STK17B (DRAK2)): -4% | inhibition at 1 µM (STK38L (NDR2)): -7% | inhibition at 1 µM (VRK2): -4% | inhibition at 1 µM (TEC): 7% | inhibition at 1 µM (KIT V654A): 10% | inhibition at 1 µM (TGFBR1 (ALK5)): -4% | inhibition at 1 µM (TESK1): -2% | inhibition at 1 µM (LIMK1): -7% | inhibition at 1 µM (ANKK1): -2% | inhibition at 1 µM (HUNK): -1% | inhibition at 1 µM (ALK F1174L): 8% | inhibition at 1 µM (KIT D816H): -7% | inhibition at 1 µM (ALK C1156Y): -2% | inhibition at 1 µM (PKN2 (PRK2)): 6% | inhibition at 1 µM (KIT D816V): -3% | inhibition at 1 µM (MASTL): 3% | inhibition at 1 µM (MAP3K3 (MEKK3)): -3% | inhibition at 1 µM (CLK4): 6% | inhibition at 1 µM (ACVRL1 (ALK1)): 12% | inhibition at 1 µM (MAP3K11 (MLK3)): 2% | inhibition at 1 µM (ACVR1 (ALK2)): 0%
